From ChEMBL document CHEMBL1201862, “PubChem BioAssay data set” (2004)
Activity calls are given as the source filed them.

Key:
[1] = inhibitors of intracellular T. cruzi replication, confirmation, NIH3T3 host cells, beta-gal luminescence (AID 2044); format: functional, cell-based;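 further: intracellular parasites grown in NIH/3T3 mouse fibroblasts as host cells; luminescent beta-galactosidase reporter signal from transgenic T. cruzi replicating inside host cells; inhibitors lower the luminescence signal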
[2] = molecular target: T1, DNA repair protein RAD52 homolog (Homo sapiens, UniProt P43351); format: functional, biochemical
T1 sequence (P43351 whole entry): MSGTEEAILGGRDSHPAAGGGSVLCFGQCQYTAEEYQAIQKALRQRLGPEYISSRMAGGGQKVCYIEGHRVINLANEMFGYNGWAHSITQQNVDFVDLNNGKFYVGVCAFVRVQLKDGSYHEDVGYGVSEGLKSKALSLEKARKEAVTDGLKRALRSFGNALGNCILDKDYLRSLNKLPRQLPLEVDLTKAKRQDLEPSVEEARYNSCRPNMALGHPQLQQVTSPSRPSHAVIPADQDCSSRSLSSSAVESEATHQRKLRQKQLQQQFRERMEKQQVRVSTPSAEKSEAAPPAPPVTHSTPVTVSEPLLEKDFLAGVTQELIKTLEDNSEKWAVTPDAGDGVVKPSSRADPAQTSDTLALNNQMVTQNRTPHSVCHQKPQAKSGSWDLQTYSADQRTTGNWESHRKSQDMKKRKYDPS

[3] = Luminescence Cell-Based Dose Confirmation HTS to Identify Inhibitors of Polyadenylation.; format: functional
[4] = cytotoxicity toward NIH3T3 fibroblasts, dose response, counter-screen, cell-based, ATP luminescence, mouse fibroblasts (AID 2010); format: functional;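 further: cells exposed to compound for about 90 hours before reading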
[5] = molecular target: DNA repair and recombination protein RAD54-like (Homo sapiens, UniProt Q92698); experiment: inhibitors of human RAD54 branch migration, confirmation, biochemical, fluorescence, cherry-picked samples, dose series (AID 651657); format: functional
Sequence of DNA repair and recombination protein RAD54-like (Q92698 whole entry): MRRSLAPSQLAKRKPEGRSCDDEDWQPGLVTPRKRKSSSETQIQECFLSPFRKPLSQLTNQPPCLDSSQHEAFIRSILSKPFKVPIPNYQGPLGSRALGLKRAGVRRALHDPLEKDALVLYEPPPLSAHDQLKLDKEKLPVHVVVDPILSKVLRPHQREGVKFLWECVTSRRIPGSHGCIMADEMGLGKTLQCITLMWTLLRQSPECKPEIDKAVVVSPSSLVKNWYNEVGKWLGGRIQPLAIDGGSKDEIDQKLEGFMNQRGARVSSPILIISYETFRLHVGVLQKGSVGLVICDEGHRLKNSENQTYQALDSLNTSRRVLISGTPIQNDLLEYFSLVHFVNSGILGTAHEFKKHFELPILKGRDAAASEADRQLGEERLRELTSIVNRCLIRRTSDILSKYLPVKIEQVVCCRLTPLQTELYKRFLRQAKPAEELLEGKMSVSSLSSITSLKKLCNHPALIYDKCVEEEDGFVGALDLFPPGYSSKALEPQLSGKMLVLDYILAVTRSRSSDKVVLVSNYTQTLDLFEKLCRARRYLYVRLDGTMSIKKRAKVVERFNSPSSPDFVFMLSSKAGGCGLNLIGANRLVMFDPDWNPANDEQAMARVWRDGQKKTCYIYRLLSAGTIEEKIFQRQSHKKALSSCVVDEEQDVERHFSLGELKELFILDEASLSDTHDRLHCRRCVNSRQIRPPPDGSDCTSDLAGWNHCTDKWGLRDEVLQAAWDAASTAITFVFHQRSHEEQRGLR

[6] = molecular target: T2, Mitochondrial peptide methionine sulfoxide reductase (Bos taurus, UniProt P54149); format: functional;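 further: absorbance read-out, biochemical high-throughput dose-response screen for MsrA inhibitors, confirmatory; recombinant bovine MsrA coupled to E. coli TrxB with NADPH and selenocystamine; potency is for inhibitors of MsrA activity on DMSO substrate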
T2 sequence (P54149 whole entry): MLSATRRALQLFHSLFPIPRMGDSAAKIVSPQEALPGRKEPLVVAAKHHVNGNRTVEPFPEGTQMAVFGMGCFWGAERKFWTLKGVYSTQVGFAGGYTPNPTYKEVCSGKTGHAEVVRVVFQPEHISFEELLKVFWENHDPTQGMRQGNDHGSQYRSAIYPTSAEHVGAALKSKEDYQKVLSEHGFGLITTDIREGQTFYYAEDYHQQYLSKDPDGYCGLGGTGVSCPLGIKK

[7] = Fluorescence-based cell-based high throughput dose response assay for inhibitors of the interaction of nucleotide-binding oligomerization domain containing 2 (NOD2) and the receptor-interacting serine-threonine kinase 2 (RIPK2).; format: functional; conditions: Homo sapiens
[8] = molecular target: T3, Sentrin-specific protease 1 (Homo sapiens, UniProt Q9P0U3); experiment: potency of human SENP1 inhibitors, dose response, biochemical, kinetic FRET (AID 651697); format: functional; conditions: read-out: IC50_Mean
T3 sequence (Q9P0U3 whole entry, the tested form may be a part): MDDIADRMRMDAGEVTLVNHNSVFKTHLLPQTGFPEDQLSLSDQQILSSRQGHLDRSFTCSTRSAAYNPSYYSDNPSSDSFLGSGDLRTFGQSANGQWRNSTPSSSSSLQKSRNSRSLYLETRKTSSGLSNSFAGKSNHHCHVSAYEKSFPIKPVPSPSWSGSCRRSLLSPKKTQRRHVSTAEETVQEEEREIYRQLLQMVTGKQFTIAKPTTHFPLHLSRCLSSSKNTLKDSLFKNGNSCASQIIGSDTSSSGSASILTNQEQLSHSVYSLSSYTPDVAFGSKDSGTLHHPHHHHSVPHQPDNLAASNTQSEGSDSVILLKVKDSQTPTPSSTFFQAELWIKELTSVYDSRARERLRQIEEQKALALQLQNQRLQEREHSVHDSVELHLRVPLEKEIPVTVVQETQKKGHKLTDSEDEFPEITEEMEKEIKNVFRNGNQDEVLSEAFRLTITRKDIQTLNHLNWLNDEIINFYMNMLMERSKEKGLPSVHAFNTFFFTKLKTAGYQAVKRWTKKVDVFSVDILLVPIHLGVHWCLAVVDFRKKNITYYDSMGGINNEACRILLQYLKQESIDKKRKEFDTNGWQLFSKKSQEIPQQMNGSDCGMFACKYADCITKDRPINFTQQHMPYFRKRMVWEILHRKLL

[9] = molecular target: T3, Sentrin-specific protease 1; experiment: Dose response confirmation of small molecule inhibitors of the catalytic domain of the SUMO protease, SENP1 in a FRET assay.; format: functional; conditions: read-out: IC50_Mean
Protein RecA = molecular target: T4, Protein RecA (Mycobacterium tuberculosis, UniProt P9WHJ3); experiment: Fluorescence Cell-Free Homogeneous Dose Retest to Identify Inhibitors of RecA-Intein Splicing Activity. [Related pubchem assays (depositor defined):AID2097, AID2223, AID489010, AID492950]; format: functional
T4 sequence (P9WHJ3 whole entry): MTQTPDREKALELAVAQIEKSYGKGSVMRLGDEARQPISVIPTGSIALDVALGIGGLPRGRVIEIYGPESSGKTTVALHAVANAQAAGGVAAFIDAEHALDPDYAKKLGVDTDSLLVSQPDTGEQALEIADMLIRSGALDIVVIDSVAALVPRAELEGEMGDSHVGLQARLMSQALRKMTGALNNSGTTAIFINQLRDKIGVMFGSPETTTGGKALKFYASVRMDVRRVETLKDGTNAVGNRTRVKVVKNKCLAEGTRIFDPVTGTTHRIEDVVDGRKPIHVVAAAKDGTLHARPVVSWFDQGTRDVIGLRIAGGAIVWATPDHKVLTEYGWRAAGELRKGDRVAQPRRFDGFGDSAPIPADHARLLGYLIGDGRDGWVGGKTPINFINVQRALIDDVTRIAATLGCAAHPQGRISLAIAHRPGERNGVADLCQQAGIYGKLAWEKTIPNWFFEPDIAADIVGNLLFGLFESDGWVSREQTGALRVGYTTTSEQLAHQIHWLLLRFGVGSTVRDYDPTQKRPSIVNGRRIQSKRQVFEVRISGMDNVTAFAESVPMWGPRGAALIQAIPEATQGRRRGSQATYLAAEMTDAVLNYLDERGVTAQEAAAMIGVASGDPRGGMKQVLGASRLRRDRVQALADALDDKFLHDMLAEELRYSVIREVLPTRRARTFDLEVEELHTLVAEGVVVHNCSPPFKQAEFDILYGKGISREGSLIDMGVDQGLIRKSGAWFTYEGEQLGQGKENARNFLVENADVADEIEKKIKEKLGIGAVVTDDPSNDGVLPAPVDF

[10] = test system: Streptococcus sp. 'group A'; experiment: growth inhibition of control SK(-) GAS strain, dose response, counter-screen for streptokinase expression inhibitor project, luminescence, kanamycin, BacTiterGlo, confirmation (AID 1900); format: functional, organism-based
[11] = AlphaScreen signal interference compounds, dose response, artefact control for ARNT-TACC3 interaction inhibitor project, biochemical, luminescence, cherry-pick (AID 651705); format: functional;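 further: AlphaScreen bead proximity signal that flags compounds interfering with the detection technology; potency reflects signal decrease which marks the compound as an assay artifact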
INS1 = experiment: beta cell apoptosis inhibitors, cytokine rescue, dose response, luminescence, retest (AID 449756); format: functional, cell-based; conditions: Rattus norvegicus;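 further: cell death triggered by IL-1 beta plus TNF-alpha plus IFN-gamma mixture; protective hits raise ATP signal compared with cytokine alone wells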
[12] = molecular target: T5, Apoptotic protease-activating factor 1 (Homo sapiens, UniProt O14727); format: functional
T5 sequence (O14727 whole entry): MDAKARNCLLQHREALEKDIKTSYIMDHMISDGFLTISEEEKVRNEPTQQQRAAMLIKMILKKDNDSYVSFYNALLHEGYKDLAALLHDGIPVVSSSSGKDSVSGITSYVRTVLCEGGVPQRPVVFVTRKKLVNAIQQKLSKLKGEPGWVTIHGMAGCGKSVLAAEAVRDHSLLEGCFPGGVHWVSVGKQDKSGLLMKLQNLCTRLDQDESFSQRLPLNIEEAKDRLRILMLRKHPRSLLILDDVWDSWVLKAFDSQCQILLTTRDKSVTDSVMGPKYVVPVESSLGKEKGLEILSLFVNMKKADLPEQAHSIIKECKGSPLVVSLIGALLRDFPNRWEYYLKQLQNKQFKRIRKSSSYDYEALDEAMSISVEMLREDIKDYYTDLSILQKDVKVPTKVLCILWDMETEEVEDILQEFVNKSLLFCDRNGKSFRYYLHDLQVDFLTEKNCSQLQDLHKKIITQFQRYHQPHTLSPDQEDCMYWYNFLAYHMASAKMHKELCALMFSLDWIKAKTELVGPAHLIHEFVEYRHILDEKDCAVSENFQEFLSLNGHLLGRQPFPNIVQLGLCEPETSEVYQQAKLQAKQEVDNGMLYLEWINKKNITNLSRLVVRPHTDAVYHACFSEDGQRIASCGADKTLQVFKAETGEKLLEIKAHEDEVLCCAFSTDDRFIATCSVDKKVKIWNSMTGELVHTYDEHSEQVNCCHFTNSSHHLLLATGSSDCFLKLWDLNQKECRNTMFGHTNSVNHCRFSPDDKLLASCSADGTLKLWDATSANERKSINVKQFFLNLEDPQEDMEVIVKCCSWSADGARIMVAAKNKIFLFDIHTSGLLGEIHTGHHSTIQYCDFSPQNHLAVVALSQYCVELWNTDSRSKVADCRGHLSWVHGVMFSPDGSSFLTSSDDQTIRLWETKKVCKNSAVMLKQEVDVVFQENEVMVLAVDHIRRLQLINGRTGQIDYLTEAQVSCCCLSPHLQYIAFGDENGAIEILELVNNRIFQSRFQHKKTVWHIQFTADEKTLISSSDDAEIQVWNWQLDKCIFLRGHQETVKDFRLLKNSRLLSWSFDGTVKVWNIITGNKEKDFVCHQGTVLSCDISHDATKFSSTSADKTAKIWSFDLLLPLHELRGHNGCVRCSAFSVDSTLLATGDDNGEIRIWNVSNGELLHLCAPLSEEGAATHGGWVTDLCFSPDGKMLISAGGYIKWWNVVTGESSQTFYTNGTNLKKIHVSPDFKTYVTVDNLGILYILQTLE

[13] = molecular target: T6, Replicative DNA helicase DnaB (Mycobacterium tuberculosis, UniProt P9WMR3); experiment: DnaB intein splicing inhibitors, dose response, biochemical, cell-free fluorescence (AID 449749); format: functional
T6 sequence (P9WMR3 whole entry): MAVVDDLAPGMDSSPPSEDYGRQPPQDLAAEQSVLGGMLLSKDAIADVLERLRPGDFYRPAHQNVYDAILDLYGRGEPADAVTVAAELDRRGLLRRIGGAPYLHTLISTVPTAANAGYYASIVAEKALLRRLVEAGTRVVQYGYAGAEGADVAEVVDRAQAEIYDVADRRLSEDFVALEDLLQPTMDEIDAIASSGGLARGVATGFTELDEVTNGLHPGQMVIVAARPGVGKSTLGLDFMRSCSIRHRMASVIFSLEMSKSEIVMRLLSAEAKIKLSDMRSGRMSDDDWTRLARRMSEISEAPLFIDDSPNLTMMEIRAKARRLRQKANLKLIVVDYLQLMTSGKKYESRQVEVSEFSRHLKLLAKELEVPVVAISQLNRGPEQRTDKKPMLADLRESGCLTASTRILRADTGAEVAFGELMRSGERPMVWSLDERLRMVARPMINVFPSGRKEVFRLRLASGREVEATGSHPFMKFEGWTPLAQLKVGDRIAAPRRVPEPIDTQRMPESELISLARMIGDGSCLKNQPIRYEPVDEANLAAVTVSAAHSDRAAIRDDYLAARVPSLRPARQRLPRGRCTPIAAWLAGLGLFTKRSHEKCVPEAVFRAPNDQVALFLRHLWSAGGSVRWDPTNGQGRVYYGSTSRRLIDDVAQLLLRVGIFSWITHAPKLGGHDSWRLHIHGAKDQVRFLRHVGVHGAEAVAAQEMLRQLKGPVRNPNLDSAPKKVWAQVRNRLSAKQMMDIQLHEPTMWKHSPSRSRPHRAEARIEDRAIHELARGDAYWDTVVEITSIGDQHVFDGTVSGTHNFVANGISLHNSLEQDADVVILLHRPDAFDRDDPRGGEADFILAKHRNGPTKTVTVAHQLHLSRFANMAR

Streptococcus = experiment: Group A Streptococcus viability loss, dose response, counter-screen for streptokinase expression inhibitor project, luminescence, BacTiterGlo (AID 1915); format: functional, organism-based;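 further: potency for reduction of bacterial viability or growth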
Steroidogenic factor 1 = Steroidogenic factor 1 (Homo sapiens, UniProt Q13285); experiment: Counterscreen for inverse agonists of the liver receptor homolog-1 (LRH-1; NR5A2): Luminescence-based cell-based high throughput dose response assay to identify inverse agonists of the Steroidogenic Factor 1 Nuclear Receptor (SF1; NR5A1).; format: functional
Sequence of Steroidogenic factor 1 (Q13285 whole entry): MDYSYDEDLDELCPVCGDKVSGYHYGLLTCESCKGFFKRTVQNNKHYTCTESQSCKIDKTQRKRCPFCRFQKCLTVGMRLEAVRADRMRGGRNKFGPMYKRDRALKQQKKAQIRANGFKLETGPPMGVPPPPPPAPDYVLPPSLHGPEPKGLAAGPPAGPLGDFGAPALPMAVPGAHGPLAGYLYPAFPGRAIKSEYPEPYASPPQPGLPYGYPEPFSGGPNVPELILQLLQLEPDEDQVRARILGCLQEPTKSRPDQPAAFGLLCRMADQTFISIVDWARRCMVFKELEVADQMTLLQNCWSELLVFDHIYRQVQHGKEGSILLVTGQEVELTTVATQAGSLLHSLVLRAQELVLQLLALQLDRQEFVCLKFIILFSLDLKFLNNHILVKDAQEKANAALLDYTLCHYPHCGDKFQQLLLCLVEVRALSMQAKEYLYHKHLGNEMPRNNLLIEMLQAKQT

[14] = StAR promoter reporter inhibition counter-screen, dose response, counter-screen for LRH-1 inverse agonist project, cell-based, luminescence, luciferase reporter (AID 651969); format: functional
[15] = molecular target: Nuclear receptor subfamily 5 group A member 2 (Homo sapiens, UniProt O00482); format: functional, cell-based;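 further: HEK293T cells transfected with LRH-1 and a StAR promoter luciferase reporter; potency for inhibitors that lower LRH-1 driven reporter light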
Sequence of Nuclear receptor subfamily 5 group A member 2 (O00482 whole entry, the tested form may be a part): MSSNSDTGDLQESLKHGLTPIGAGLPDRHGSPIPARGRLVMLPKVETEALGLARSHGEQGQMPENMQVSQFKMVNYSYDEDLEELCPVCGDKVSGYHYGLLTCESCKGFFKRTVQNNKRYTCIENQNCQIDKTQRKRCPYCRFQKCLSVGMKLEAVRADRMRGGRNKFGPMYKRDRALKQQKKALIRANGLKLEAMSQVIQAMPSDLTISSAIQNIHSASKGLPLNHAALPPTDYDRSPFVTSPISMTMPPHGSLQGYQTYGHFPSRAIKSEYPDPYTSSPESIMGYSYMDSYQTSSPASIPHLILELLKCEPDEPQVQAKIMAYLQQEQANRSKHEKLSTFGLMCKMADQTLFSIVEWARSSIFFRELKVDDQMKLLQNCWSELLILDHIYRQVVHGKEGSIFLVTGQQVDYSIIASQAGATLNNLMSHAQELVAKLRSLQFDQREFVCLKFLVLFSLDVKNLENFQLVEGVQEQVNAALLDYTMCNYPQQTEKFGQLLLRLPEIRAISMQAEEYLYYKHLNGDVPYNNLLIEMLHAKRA

[16] = molecular target: Hepatocyte nuclear factor 4-alpha (Homo sapiens, UniProt P41235); format: functional, cell-based;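 further: biochemical luminescence-based dose-response counterscreen measuring inhibition of HNF4 dimerization, run alongside a screen for blockers of ABHD5–perilipin-5 interaction; split luciferase complementation of HNF4 fusion proteins in cell lysate measuring dimerization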
Sequence of Hepatocyte nuclear factor 4-alpha (P41235 whole entry, the tested form may be a part): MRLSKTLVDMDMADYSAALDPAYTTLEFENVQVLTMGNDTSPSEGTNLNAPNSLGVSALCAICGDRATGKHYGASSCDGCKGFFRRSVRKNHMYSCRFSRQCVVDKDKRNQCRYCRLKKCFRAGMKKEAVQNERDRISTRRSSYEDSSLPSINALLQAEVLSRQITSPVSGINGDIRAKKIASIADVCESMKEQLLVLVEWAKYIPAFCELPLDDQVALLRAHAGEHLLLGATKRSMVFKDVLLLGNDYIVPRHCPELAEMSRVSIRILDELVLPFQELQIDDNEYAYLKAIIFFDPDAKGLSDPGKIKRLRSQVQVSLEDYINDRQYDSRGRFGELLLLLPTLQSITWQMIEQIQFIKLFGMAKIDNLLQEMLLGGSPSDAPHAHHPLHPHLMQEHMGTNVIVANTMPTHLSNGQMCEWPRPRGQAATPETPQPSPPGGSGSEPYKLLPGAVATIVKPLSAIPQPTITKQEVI

[17] = molecular target: Heat shock protein HSP 90-alpha (Homo sapiens, UniProt P07900); format: functional, organism-based
[18] = molecular target: Palmitoyl-protein thioesterase ABHD10, mitochondrial (Mus musculus, UniProt Q6PE15); experiment: Late stage assay provider results from the probe development effort to identify inhibitors of PME-1: fluorescence-based dose response biochemical gel-based competitive Activity-Based Protein Profiling (ABPP) inhibition of ABHD10 Set 2.; format: functional
Sequence of Palmitoyl-protein thioesterase ABHD10, mitochondrial (Q6PE15 whole entry): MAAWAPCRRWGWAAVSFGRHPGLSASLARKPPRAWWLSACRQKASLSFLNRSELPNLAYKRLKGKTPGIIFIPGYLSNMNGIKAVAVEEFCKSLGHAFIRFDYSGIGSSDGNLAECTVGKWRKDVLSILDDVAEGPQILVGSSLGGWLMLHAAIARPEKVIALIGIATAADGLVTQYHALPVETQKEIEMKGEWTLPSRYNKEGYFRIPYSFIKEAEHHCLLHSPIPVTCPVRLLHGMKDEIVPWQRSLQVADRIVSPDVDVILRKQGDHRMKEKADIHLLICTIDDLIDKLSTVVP

COc1ccc(OC)c(Nc2nc(NCCO)c3ccccc3n2)c1
EC50 [1]: 2.1 µM (active) | AC50 [2]: 4.32 µM (active) | EC50 [3]: > 120 µM (not active) | EC50 [4]: > 30 µM (not active) | AC50 [5]: 11.6 µM (active)

Cn1cnc([N+](=O)[O-])c1S(=O)(=O)Oc1ccc(Cl)cc1
IC50 [6]: 42.8 µM (inactive) | IC50 [7]: 4.09 µM (active)

O=C1c2cc(CO)cc(O)c2C(=O)c2c(O[C@@H]3OC(CO)[C@@H](O)[C@@H](O)[C@@H]3O)cccc21 (some centres not stated)
IC50 [8]: 22.1 µM (inactive) | IC50 [9]: 17.4 µM (active)

Cc1[nH]n(-c2ccccc2)c(=O)c1/C=N\NC(=O)C1COc2ccccc2O1 (configuration not stated)
EC50 (Protein RecA): 17.5 µM (active) | EC50 [10]: 1.36 µM (active) | AC50 [11]: 104 µM (active) | AC50 (INS1): 5.03 µM (active) | IC50 [12]: 8.83 µM (active) | AC50 [13]: 40.9 µM (active) | EC50 (Streptococcus): 8.94 µM (active)

COc1ccc(OC)c(NC(=O)c2ccccc2NC(=O)c2ccco2)c1
IC50 (Steroidogenic factor 1): 11.4 µM (inactive) | IC50 [14]: 35.9 µM (inactive) | IC50 [15]: 24 µM (inactive)

CC1=CC2C(C(O)CC3(C)C2CC(C)C32OCOC23COCO3)C2(C)CC(C=O)=C(O)C=C12 (configuration not stated)
IC50 [16]: 11 µM (inactive) | AC50 [17]: 4.34 µM (active)

CCOC(=O)N1C(=O)[C@@](CC)(c2cccc(C)c2)N1C(=O)OCC
IC50 [18]: 60 nM (active)
